{"source": "patent US6586216B2", "about": "(Purdue Research Foundation, priority 1997, dated 2003)", "assay_type_in_all_cases": "biochemical", "key": {"[1]": {"target": "T1, Bacillus subtilis glutamine PRPP amidotransferase variant S283A (Bacillus subtilis, UniProt P00497, S294A)", "T1 construct": "Enzymes of the B. subtilis class are synthesized with an NH2 terminal propeptide; made in house; host or cells: E. coli strain TX158 (purF), plasmid pBsF/S283A", "T1 sequence (P00497 12-476 S294A)": "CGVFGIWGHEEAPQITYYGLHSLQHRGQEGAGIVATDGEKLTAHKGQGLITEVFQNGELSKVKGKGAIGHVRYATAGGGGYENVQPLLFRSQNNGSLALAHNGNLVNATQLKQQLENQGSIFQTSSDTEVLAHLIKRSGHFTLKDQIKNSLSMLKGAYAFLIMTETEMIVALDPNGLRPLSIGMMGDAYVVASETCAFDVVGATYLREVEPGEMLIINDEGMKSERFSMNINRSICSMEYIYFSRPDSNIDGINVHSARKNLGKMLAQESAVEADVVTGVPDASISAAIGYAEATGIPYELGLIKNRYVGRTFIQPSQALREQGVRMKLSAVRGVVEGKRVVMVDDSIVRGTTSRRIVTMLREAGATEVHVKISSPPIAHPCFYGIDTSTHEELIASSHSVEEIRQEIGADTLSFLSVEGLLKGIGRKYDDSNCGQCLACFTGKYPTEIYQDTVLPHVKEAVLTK", "assay": "Inhibition of enzyme activity (glutamate formation) by nucleotides, mutant S283A", "conditions": "for increase of concentration for 50% inhibition relative to wild type: ADP-GMP mixture", "from_the_text": "(§1) Plasmid pGZ1 was used for production of the wild type enzyme. Plasmid pGZ1 contains a 1.6 kb EcoRI-HindIII purF^+ fragment (Makaroff, C. A., Zalkin, H., Switzer, R. L., and Vollmer, S. J. (1983) J. Biol. Chem. 258, pp. 10586-10593) inserted into the corresponding sites of pUC18. For construction of mutants, the EcoRI-HindIII purF^+ DNA was transferred to pUC118 to yield pBsF. Mutations were constructed by the method of Kunkel et al. (Kunkel, T. A., Roberts, J. D., and Zakour, R. A. (1987) Methods Enzymol. 154, pp. 367-382) using pBsF phagemid DNA. The resulting plasmids were named pBsF/S283A, pBsF/K305Q, pBsF/R307Q, and pBsF/S347A.\n(§2) Enzyme activity was assayed by measuring the initial rate of formation of the product glutamate. […] Incubation was at 37° C. for 6 min. The reaction was linear with time for at least 20 min under these conditions of assay. Reactions were quenched in a boiling water bath for 2 min, and glutamate was determined by the glutamate dehydrogenase method. The control reaction mixture contained all the components except PRPP.\n(§3) Inhibition by nucleotides was determined by the standard assay to which varied concentrations of nucleotide were added. Synergistic inhibition was determined by varying the concentration of one nucleotide in the presence of a fixed concentration of a second nucleotide. Relative activity (see FIG. 1) refers to the enzyme activity at a given concentration of the varied nucleotide relative to that in the absence of the varied nucleotide. I0.5 values were calculated from plots of relative activity versus varied nucleotide concentration.\n(§4) Site directed mutagenesis was utilized to modify amino acids comprising the A site and C site domains of the glutamine PRPP amidotransferase. These modified forms of amidotransferase were analyzed to determine the impact of the mutations on end-product inhibition and enzymatic activity. Inhibition by nucleotides was determined as described in Example 1."}, "[2]": {"target": "T2, Bacillus subtilis glutamine PRPP amidotransferase variant K305Q (Bacillus subtilis, UniProt P00497, K316Q)", "T2 construct": "Enzymes of the B. subtilis class are synthesized with an NH2 terminal propeptide; made in house; host or cells: E. coli strain TX158 (purF), plasmid pBsF/K305Q", "T2 sequence (P00497 12-476 K316Q)": "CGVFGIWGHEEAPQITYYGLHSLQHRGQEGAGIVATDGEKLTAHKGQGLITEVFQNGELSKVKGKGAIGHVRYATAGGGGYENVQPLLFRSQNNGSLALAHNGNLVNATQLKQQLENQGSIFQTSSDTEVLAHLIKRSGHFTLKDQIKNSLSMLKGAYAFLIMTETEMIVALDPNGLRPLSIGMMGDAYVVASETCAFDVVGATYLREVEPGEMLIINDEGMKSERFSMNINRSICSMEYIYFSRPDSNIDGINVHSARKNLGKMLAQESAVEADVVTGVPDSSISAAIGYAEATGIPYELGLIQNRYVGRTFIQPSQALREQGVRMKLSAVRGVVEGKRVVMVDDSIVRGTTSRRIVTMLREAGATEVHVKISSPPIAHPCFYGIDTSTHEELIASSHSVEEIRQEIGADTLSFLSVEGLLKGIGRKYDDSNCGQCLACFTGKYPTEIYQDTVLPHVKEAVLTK", "assay": "Inhibition of enzyme activity (glutamate formation) by nucleotides, mutant K305Q", "from_the_text": "as §1, §2, §3, §4"}, "[3]": {"target": "T3, Bacillus subtilis glutamine PRPP amidotransferase variant R307Q (Bacillus subtilis, UniProt P00497, R318Q)", "T3 construct": "Enzymes of the B. subtilis class are synthesized with an NH2 terminal propeptide; made in house; host or cells: E. coli strain TX158 (purF), plasmid pBsF/R307Q", "T3 sequence (P00497 12-476 R318Q)": "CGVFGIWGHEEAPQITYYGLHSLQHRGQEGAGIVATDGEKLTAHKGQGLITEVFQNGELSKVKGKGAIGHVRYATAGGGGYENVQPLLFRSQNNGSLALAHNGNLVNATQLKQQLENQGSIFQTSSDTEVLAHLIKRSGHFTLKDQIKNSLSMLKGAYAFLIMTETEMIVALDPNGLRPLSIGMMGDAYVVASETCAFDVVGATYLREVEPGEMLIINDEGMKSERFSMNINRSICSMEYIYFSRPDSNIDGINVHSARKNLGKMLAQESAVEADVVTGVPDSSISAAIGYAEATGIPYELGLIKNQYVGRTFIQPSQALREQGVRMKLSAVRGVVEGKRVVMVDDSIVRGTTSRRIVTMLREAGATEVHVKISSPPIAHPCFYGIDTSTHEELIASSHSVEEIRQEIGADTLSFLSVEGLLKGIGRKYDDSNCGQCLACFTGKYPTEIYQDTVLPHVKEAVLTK", "assay": "Inhibition of enzyme activity (glutamate formation) by nucleotides, mutant R307Q", "from_the_text": "as §1, §2, §3, §4"}, "[4]": {"target": "T4, Bacillus subtilis glutamine PRPP amidotransferase variant S347A (Bacillus subtilis, UniProt P00497, S358A)", "T4 construct": "Enzymes of the B. subtilis class are synthesized with an NH2 terminal propeptide; made in house; host or cells: E. coli strain TX158 (purF), plasmid pBsF/S347A", "T4 sequence (P00497 12-476 S358A)": "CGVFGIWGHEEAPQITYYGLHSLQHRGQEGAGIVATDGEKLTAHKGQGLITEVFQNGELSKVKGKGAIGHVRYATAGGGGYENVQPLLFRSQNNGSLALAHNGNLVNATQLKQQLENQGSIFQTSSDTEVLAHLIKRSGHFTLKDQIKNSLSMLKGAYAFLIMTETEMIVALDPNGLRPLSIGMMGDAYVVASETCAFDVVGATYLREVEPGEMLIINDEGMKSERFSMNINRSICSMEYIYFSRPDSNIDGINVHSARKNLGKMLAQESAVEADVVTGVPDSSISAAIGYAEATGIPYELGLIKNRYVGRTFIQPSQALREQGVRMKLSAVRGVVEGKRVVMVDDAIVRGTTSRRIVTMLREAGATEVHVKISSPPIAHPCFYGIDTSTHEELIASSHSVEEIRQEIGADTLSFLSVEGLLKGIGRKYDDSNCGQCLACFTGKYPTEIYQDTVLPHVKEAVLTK", "assay": "biochemical", "from_the_text": "as §1\nEnzyme activity was assayed by measuring the initial rate of formation of the product glutamate. […] Incubation was at 37° C. for 6 min. […] Reactions were quenched in a boiling water bath for 2 min, and glutamate was determined by the glutamate dehydrogenase method.\nas §3\nThese modified forms of amidotransferase were analyzed to determine the impact of the mutations on end-product inhibition and enzymatic activity. Inhibition by nucleotides was determined as described in Example 1."}, "[5]": {"conditions": "I0.5, no fixed nucleotide, 2.5 mM PRPP, pH 8.0, 37° C."}, "[6]": {"conditions": "I0.5, fixed GMP 1.4 mM (footnote c)"}, "[7]": {"conditions": "I0.5, fixed ADP 0.8 mM (footnote c)"}}}
{"smiles": "Nc1ncnc2c1ncn2[C@@H]1O[C@H](COP(=O)(O)OP(=O)(O)O)[C@@H](O)[C@H]1O", "note": "[ADP]", "values": [{"measurement": "increase of concentration for 50% inhibition relative to wild type", "setting": "[1]", "result": 30, "unit": "fold"}, {"measurement": "IC50", "setting": "[1]; I0.5, fixed GMP 0.50 mM", "result": 4.8, "unit": "mM"}, {"measurement": "IC50", "setting": "[1]; [5]", "result": 24, "unit": "mM"}, {"measurement": "syn. (decreased I0.5 due to a second nucleotide)", "setting": "[1]; fixed GMP 0.50 mM", "result": 5.0, "unit": "fold"}, {"measurement": "I0.5 increase relative to wild type", "setting": "[1]; no fixed nucleotide", "result": "5-7 fold"}, {"measurement": "decreased inhibition relative to wild type", "setting": "[1]; no fixed nucleotide", "result": "5-7 fold"}, {"measurement": "IC50", "setting": "[2]; I0.5, fixed GMP 0.50 mM", "result": 12, "unit": "mM"}, {"measurement": "IC50", "setting": "[2]; I0.5, fixed GMP 5.0 mM", "result": 0.32, "unit": "mM"}, {"measurement": "IC50", "setting": "[2]; [5]", "result": 31, "unit": "mM"}, {"measurement": "syn. (decreased I0.5 due to a second nucleotide)", "setting": "[2]; fixed GMP 0.50 mM", "result": 2.6, "unit": "fold"}, {"measurement": "syn. (decreased I0.5 due to a second nucleotide)", "setting": "[2]; fixed GMP 5.0 mM", "result": 97.0, "unit": "fold"}, {"measurement": "IC50", "setting": "[3]; I0.5, fixed GMP 0.50 mM", "result": 2.4, "unit": "mM"}, {"measurement": "IC50", "setting": "[3]; I0.5, fixed GMP 5.0 mM", "result": 0.18, "unit": "mM"}, {"measurement": "IC50", "setting": "[3]; [5]", "result": 28, "unit": "mM"}, {"measurement": "syn. (decreased I0.5 due to a second nucleotide)", "setting": "[3]; fixed GMP 0.50 mM", "result": 12.0, "unit": "fold"}, {"measurement": "syn. (decreased I0.5 due to a second nucleotide)", "setting": "[3]; fixed GMP 5.0 mM", "result": 156.0, "unit": "fold"}, {"measurement": "IC50", "setting": "[4]; [6]", "result": 0.22, "unit": "mM"}, {"measurement": "IC50", "setting": "[4]; [5]", "result": 8.1, "unit": "mM"}, {"measurement": "syn. (decreased I0.5 due to a second nucleotide)", "setting": "[4]; fixed GMP 1.4 mM (footnote c)", "result": 37.0, "unit": "fold"}]}
{"smiles": "Nc1ncnc2c1ncn2[C@@H]1O[C@H](COP(=O)(O)O)[C@@H](O)[C@H]1O", "note": "[AMP]", "values": [{"measurement": "IC50", "setting": "[1]; [5]", "result": 6.1, "unit": "mM"}, {"measurement": "I0.5 increase relative to wild type", "setting": "[1]; no fixed nucleotide", "result": "5-7 fold"}, {"measurement": "decreased inhibition relative to wild type", "setting": "[1]; no fixed nucleotide", "result": "5-7 fold"}, {"measurement": "IC50", "setting": "[2]; [5]", "result": 2.5, "unit": "mM"}, {"measurement": "IC50", "setting": "[3]; [5]", "result": 2.6, "unit": "mM"}, {"measurement": "IC50", "setting": "[4]; [7]", "result": 0.65, "unit": "mM"}, {"measurement": "IC50", "setting": "[4]; [6]", "result": 1.8, "unit": "mM"}, {"measurement": "IC50", "setting": "[4]; [5]", "result": 1.5, "unit": "mM"}, {"measurement": "syn. (decreased I0.5 due to a second nucleotide)", "setting": "[4]; fixed ADP 0.8 mM (footnote c)", "result": 2.3, "unit": "fold"}, {"measurement": "syn. (decreased I0.5 due to a second nucleotide)", "setting": "[4]; fixed GMP 1.4 mM (footnote c)", "result": 0.8, "unit": "fold"}]}
{"smiles": "Nc1nc2c(ncn2[C@@H]2O[C@H](COP(=O)(O)O)[C@@H](O)[C@H]2O)c(=O)[nH]1", "note": "[GMP]", "values": [{"measurement": "increase of concentration for 50% inhibition relative to wild type", "setting": "[1]", "result": 13, "unit": "fold"}, {"measurement": "IC50", "setting": "[1]; I0.5, fixed ADP 0.5 mM", "result": 2, "unit": "mM"}, {"measurement": "IC50", "setting": "[1]; I0.5, fixed ADP 2.5 mM", "result": 1.7, "unit": "mM"}, {"measurement": "IC50", "setting": "[1]; [5]", "result": 6.6, "unit": "mM"}, {"measurement": "syn. (decreased I0.5 due to a second nucleotide)", "setting": "[1]; fixed ADP 0.5 mM", "result": 3.3, "unit": "fold"}, {"measurement": "syn. (decreased I0.5 due to a second nucleotide)", "setting": "[1]; fixed ADP 2.5 mM", "result": 3.9, "unit": "fold"}, {"measurement": "inhibition compared with wild type", "setting": "[1]; no fixed nucleotide", "result": "similar"}, {"measurement": "IC50", "setting": "[2]; I0.5, fixed ADP 0.5 mM", "result": 6, "unit": "mM"}, {"measurement": "IC50", "setting": "[2]; I0.5, fixed ADP 2.5 mM", "result": 1.3, "unit": "mM"}, {"measurement": "IC50", "setting": "[2]; [5]", "result": 50, "unit": "mM"}, {"measurement": "syn. (decreased I0.5 due to a second nucleotide)", "setting": "[2]; fixed ADP 0.5 mM", "result": 8.3, "unit": "fold"}, {"measurement": "syn. (decreased I0.5 due to a second nucleotide)", "setting": "[2]; fixed ADP 2.5 mM", "result": 38.0, "unit": "fold"}, {"measurement": "IC50", "setting": "[3]; I0.5, fixed ADP 0.5 mM", "result": 3.3, "unit": "mM"}, {"measurement": "IC50", "setting": "[3]; I0.5, fixed ADP 2.5 mM", "result": 0.76, "unit": "mM"}, {"measurement": "IC50", "setting": "[3]; [5]", "result": 50, "unit": "mM"}, {"measurement": "syn. (decreased I0.5 due to a second nucleotide)", "setting": "[3]; fixed ADP 0.5 mM", "result": 15.0, "unit": "fold"}, {"measurement": "syn. (decreased I0.5 due to a second nucleotide)", "setting": "[3]; fixed ADP 2.5 mM", "result": 66.0, "unit": "fold"}, {"measurement": "IC50", "setting": "[4]; [7]", "result": 0.44, "unit": "mM"}, {"measurement": "IC50", "setting": "[4]; [5]", "result": 14, "unit": "mM"}, {"measurement": "syn. (decreased I0.5 due to a second nucleotide)", "setting": "[4]; fixed ADP 0.8 mM (footnote c)", "result": 33.0, "unit": "fold"}, {"measurement": "I0.5 increase relative to wild type", "setting": "[4]; inhibition at the C site", "result": 3, "unit": "fold"}]}
